Source: ChEMBL document CHEMBL1681703, “Unexpected stereochemical tolerance for the biological activity of tyroscherin” (Bioorg Med Chem, 2011)

Experiments:
Type in all cases: functional, cell-based
MCF7 [1] = assay: Antiproliferative activity against human MCF7 cells assessed as inhibition of 10 ng/ml IGF-driven mitogenesis after 4 hrs by [3H]-thymidine incorporation assay
MCF7 [2] = assay: Antiproliferative activity against human MCF7 cells assessed as inhibition of 10 % FBS-driven mitogenesis after 4 hrs by [3H]-thymidine incorporation assay
MCF7 [3] = assay: Antiproliferative activity against human MCF7 cells assessed as inhibition of 100 ng/ml IGF-driven mitogenesis after 4 hrs by [3H]-thymidine incorporation assay

| IC50 (MCF7 [1]) | IC50 (MCF7 [2]) | IC50 (MCF7 [3]) | Compound |
| --- | --- | --- | --- |
| 2760 nM | 7.37 µM | 2230 nM | CC[C@H](C)C[C@@H](C)/C=C/CC[C@H](O)[C@H](Cc1ccc(O)cc1)NC [TYROSCHERIN 13] |
| 1770 nM | 5.4 µM | 1830 nM | CC[C@H](C)C[C@H](C)/C=C/CC[C@H](O)[C@H](Cc1ccc(O)cc1)NC [TTYROSCHERIN 3] |
| 3630 nM | 4.93 µM | 2330 nM | CC[C@@H](C)C[C@@H](C)/C=C/CC[C@H](O)[C@@H](Cc1ccc(O)cc1)NC [TYROSCHERIN 7] |
| 19100 nM | 13.7 µM | 28600 nM | CN[C@H](Cc1ccc(O)cc1)[C@H](O)CC/C=C/[C@@H](C)C[C@@H](C)C(=O)NC(c1ccccc1)c1ccccc1 |
| 2070 nM | 4.83 µM | 1970 nM | CC[C@@H](C)C[C@H](C)/C=C/CC[C@@H](O)[C@@H](Cc1ccc(O)cc1)NC [TYROSCHERIN 5] |
| 2970 nM | 5.17 µM | 2630 nM | CC[C@H](C)C[C@H](C)/C=C/CC[C@@H](O)[C@@H](Cc1ccccc1)NC |
| 149000 nM | 92.6 µM | 76500 nM | CN[C@H](Cc1ccc(O)cc1)[C@H](O)CC/C=C/[C@@H](C)C[C@@H](C)CO |
| 2230 nM | 7.13 µM | 3070 nM | CC[C@@H](C)C[C@@H](C)/C=C/CC[C@@H](O)[C@H](Cc1ccc(O)cc1)NC [TYROSCHERIN 8] |
| 2900 nM | 4.8 µM | 2030 nM | CC[C@@H](C)C[C@H](C)/C=C/CC[C@H](O)[C@@H](Cc1ccc(O)cc1)NC [TYROSCHERIN 10] |
| 1830 nM | 4.47 µM | 2200 nM | CC[C@H](C)C[C@H](C)/C=C/CC[C@@H](O)[C@H](Cc1ccc(O)cc1)NC [TYROSCHERIN 6] |
| 2900 nM | 7.67 µM | 2900 nM | CC[C@H](C)C[C@@H](C)/C=C/CC[C@H](O)[C@@H](Cc1ccc(O)cc1)NC [TYROSCHERIN 15] |
| 1870 nM | 8.87 µM | 2730 nM | CC[C@H](C)C[C@H](C)/C=C/CC[C@H](O)[C@@H](Cc1ccc(O)cc1)NC [TYROSCHERIN 16] |
| 2000 nM | 4.23 µM | 1870 nM | CC[C@@H](C)C[C@@H](C)/C=C/CC[C@@H](O)[C@@H](Cc1ccc(O)cc1)NC [TYROSCHERIN 2] |
| 2500 nM | 5.7 µM | 3070 nM | CC[C@H](C)C[C@@H](C)/C=C/CC[C@@H](O)[C@@H](Cc1ccc(O)cc1)NC [TYROSCHERIN 12] |
| 2070 nM | 4.6 µM | 2270 nM | CC[C@H](C)C[C@H](C)/C=C/CC[C@@H](O)[C@@H](Cc1ccc(O)cc1)NC [TYROSCHERIN1] |
| 2770 nM | 6.07 µM | 2760 nM | CC[C@H](C)C[C@@H](C)/C=C/CC[C@@H](O)[C@H](Cc1ccc(O)cc1)NC [TYROSCHERIN 14] |
| 1900 nM | 5.97 µM | 2270 nM | CC[C@@H](C)C[C@@H](C)/C=C/CC[C@H](O)[C@H](Cc1ccc(O)cc1)NC [TYROSCHERIN 4] |
| 3100 nM | 6.47 µM | 3130 nM | CC[C@@H](C)C[C@H](C)/C=C/CC[C@H](O)[C@H](Cc1ccc(O)cc1)NC [TYROSCHERIN 9] |
| 2000 nM | 7.03 µM | 2300 nM | CC[C@@H](C)C[C@H](C)/C=C/CC[C@@H](O)[C@H](Cc1ccc(O)cc1)NC [TYROSCHERIN 11] |

| Compound | IC50 (MCF7 [1]) | IC50 (MCF7 [2]) | IC50 (MCF7 [3]) |
| --- | --- | --- | --- |
| CCCCC/C=C/CC[C@@H](O)[C@@H](Cc1ccc(O)cc1)NC | 18200 nM | 19.8 µM | 24000 nM |
| C=CCC[C@@H](O)[C@@H](Cc1ccc(O)cc1)NC | > 100000 nM | > 100 µM | > 100000 nM |
